Measurements reported in patent publication US10179914B2, “CDC25A inhibitor for the treatment of drug resistant cancer or for the prevention of tumor relapse” (INSERM (INSTITUT NATIONAL DE LA SANTÉ ET DE LA RECHERCHE …, priority 2014, dated 2019).

Assays:
Cdc25B = target: T1, Cdc25B (Homo sapiens, UniProt P30305); details: cited from earlier work
T1 sequence (P30305 1-580): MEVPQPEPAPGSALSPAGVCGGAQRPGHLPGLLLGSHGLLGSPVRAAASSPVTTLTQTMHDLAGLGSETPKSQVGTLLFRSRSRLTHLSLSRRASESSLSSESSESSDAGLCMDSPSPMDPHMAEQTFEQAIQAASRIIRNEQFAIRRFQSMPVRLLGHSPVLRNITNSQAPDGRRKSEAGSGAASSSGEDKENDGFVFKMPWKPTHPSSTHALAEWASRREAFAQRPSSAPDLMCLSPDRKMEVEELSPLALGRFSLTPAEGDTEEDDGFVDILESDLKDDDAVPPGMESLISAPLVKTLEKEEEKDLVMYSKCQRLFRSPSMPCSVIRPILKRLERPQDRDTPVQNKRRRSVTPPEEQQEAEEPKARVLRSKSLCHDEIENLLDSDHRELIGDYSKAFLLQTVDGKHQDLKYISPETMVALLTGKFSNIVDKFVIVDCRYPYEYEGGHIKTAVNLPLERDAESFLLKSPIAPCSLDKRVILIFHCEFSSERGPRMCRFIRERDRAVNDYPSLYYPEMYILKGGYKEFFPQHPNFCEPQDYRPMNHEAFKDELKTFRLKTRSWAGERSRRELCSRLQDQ

[1] = Preliminary toxicity assays in NSG mice; assay type: in vivo
Description: In vivo experiments. Animals were used in accordance to a protocol reviewed and approved by the Institutional Animal Care and User Ethical Committee of the UMS006 and Region Midi-Pyrénées (Approval#13-U1037-JES08). NOD/LtSz-scid IL-2Rγchainnull (NSG) mice (Sanchez P V et al) were produced at the Genotoul Anexplo platform in Toulouse (France) using breeders obtained from The Charles River Laboratory. Mice were housed in sterile conditions using HEPA filtered micro-isolators and fed with irradiated food and acidified water. Transplanted mice were treated with antibiotics (enrofloxacin) for the duration of the experiment. […] Adult mice (6 or 7-week old) were treated with 20 mg/kg Busulfan (Busilvex, Pierre Fabre, France) by i.p. administration 24 hours before injection of leukemic cells. Cultured MOLM-14 cells were washed in PBS and cleared of aggregates and debris using a 0.2 mm cell filter, and suspended in PBS at a final concentration of 2 million cells per 200 μL of PBS per mouse for i.v. injection. IRC-083864 (5 mg/kg/week) was then administrated to leukemic mice by i.p. injection. Daily monitoring of mice for symptoms of disease (ruffled coat, hunched back, weakness and reduced motility) determined the time of animal euthanasia. Cell differentiation was monitored after two IRC-083864 injections: mice were humanely killed in accordance with IACUC protocols. […]

[2] = test system: MV4-11 cells (FLT3-ITD positive); assay: Cell proliferation, trypan blue counting, MV4-11; assay type: cell-based, human; details: 200 nM
Procedure: (a) MV4-11 and MOLM-14 FLT3-ITD positive cells, KG1, HL-60 and TF-1 FLT3 wild type cells, and K562 FLT3 negative cells were cultured in the presence of the CDC25 inhibitor IRC-083864 (200 nM). Cells were harvested each day and counted after trypan blue coloration. The graph represents three independent experiments.
(b) MOLM-14 and MV4-11 cells were transfected with CDC25A siRNA for 24 hours, and cells were counted after trypan blue coloration (upper panel). The efficiency of CDC25A siRNA was estimated by western blot analysis (lower panel). ns: non specific.
Cell lines and reagents. Human acute myeloid leukemia cell lines MOLM-14 (Matsuo Y et al, Leukemia 1997) (kindly provided by Martin Carroll, University of Pennsylvania, Philadelphia, Pa., USA) MV4-11, K562 (ACC-102 and ACC-10, DSMZ, Braunschweig, Germany) and FLT3-ITD-expressing murine BaF3 cells were cultured in RPMI 1640 medium (Gibco, Life Technologies, Carlsbad, Calif., USA) supplemented with 10% fetal bovine serum (Sigma, Saint Louis, Calif., USA). TF-1 (ATCC-CRL2003) cells were cultured in RPMI 1640 medium with 10% fetal bovine serum and GM-CSF 2 ng/ml. […]
siRNA. […] Twenty-four or forty-eight hours after transfection, cells were counted (trypan blue staining), and western blotting was performed.

MOLM-14 cells = assay: MOLM-14 xenograft in NSG mice, differentiation in vivo; details: 5 mg/kg/week i.p., two weeks
Procedure: (a) NSG mice were injected with 2 millions MOLM-14 cells, and treated with IRC-083864 at 5 mg/kg/week i.p. (n=4) or with vehicle buffer (n=4) as described in the Methods section. Bone marrow cells were extracted after dissection after two weeks and the expression of CD14 and CD15 on human blasts was followed by flow cytometry analysis. (b) Quantification (mean±SEM, n=4) of CD14 and CD15 expression in response to IRC-083864. (c) Morphological analyses of human cells used in (a). Original magnification ×100.
In vivo experiments. Animals were used in accordance to a protocol reviewed and approved by the Institutional Animal Care and User Ethical Committee of the UMS006 and Region Midi-Pyrénées (Approval#13-U1037-JES08). NOD/LtSz-scid IL-2Rγchainnull (NSG) mice (Sanchez P V et al) were produced at the Genotoul Anexplo platform in Toulouse (France) using breeders obtained from The Charles River Laboratory. Mice were housed in sterile conditions using HEPA filtered micro-isolators and fed with irradiated food and acidified water. Transplanted mice were treated with antibiotics (enrofloxacin) for the duration of the experiment. […] Adult mice (6 or 7-week old) were treated with 20 mg/kg Busulfan (Busilvex, Pierre Fabre, France) by i.p. administration 24 hours before injection of leukemic cells. Cultured MOLM-14 cells were washed in PBS and cleared of aggregates and debris using a 0.2 mm cell filter, and suspended in PBS at a final concentration of 2 million cells per 200 μL of PBS per mouse for i.v. injection. IRC-083864 (5 mg/kg/week) was then administrated to leukemic mice by i.p. injection. Daily monitoring of mice for symptoms of disease (ruffled coat, hunched back, weakness and reduced motility) determined the time of animal euthanasia. Cell differentiation was monitored after two IRC-083864 injections: mice were humanely killed in accordance with IACUC protocols. Bone marrow (mixed from tibias and femurs) were dissected, flushed in PBS and made into single cell suspensions for analysis by flow cytometry and cytospins.

Cc1nc2c(s1)C(=O)C=C(NCCCN(C)CCCNC1=CC(=O)c3nc(-c4cc(F)ccc4F)oc3C1=O)C2=O [IRC-083864]
IC50 Cdc25 enzyme type B2 (Cdc25B; B2): nanomolar range
IC50 Cdc25 enzyme type B3 (Cdc25B; B3): nanomolar range
toxicity in male versus female NSG mice [1]: higher toxicity
proliferation of MV4-11 [2]: robust inhibition
CD11b expression on human myeloid cells in bone marrow (MOLM-14 cells): no change
CD14 expression on MOLM-14 cells from bone marrow (MOLM-14 cells): increased expression
CD15 expression on MOLM-14 cells from bone marrow (MOLM-14 cells): unchanged expression
morphology of cytospun human bone marrow cells (MOLM-14 cells): monocytic-like nuclear changes
